Source: US20080153896A1, “Polymorphic Forms of an HMG-CoA Reductase Inhibitor and Uses Thereof” (priority 2006, published 2008)

Assay: Stability (integrity) testing of amorphous and polymorphic form under storage conditions, RP-HPLC
Assay type: physicochemical
Design: key to Impurity RRT 0.738 / Impurity RRT 0.949 / Impurity RRT 1.050 / Impurity RRT 1.550 / Impurity RRT 0.136 / Impurity RRT 0.720 / Impurity RRT 0.706 / Impurity RRT 1.18 / Impurity RRT 1.826: % of total UV absorption (HPLC peak area)
Outline: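 Amorphous form and three batches of polymorphic Form I of the hemi calcium salt were stored under different atmospheric conditions. Purity measured by RP-HPLC on C18 with UV detection, drug as percent of total absorption; total impurity from summed impurity peak areas, impurities identified by relative retention time.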

[1] = 25° C./60% RH 3M, hemi calcium salt
[2] = 25° C./60% RH 9M, hemi calcium salt

## CC(C)c1c(C(=O)Nc2ccc(CO)cc2)c(-c2ccccc2)c(-c2ccc(F)cc2)n1CC[C@@H](O)C[C@@H](O)CC(=O)[O-].CC(C)c1c(C(=O)Nc2ccc(CO)cc2)c(-c2ccccc2)c(-c2ccc(F)cc2)n1CC[C@@H](O)C[C@@H](O)CC(=O)[O-].[Ca+2] [PP00405, (3R, 5R)-7-[2-(4-fluorophenyl)-5-isopropyl-3-phenyl-4-[(4-hydroxymethylphenylamino)carbonyl]-pyrrol-1-yl]-3,5-dihydroxy-heptanoic acid, hemi calcium salt]
5° C. 1M
  Description: White
  Impurity RRT 1.094: 0.157
  Impurity RRT 1.437: 0.155
  Impurity RRT 1.593: 0.082
  Impurity RRT 1.694: 0.069
5° C. 1M, hemi calcium salt
  Assay: 98.31 % W/W
  Highest Impurity: 0.360
  Impurity RRT 0.935: 0.360
  Impurity RRT 1.045: 0.357
  Impurity RRT 1.64: 0.057
  Total Impurity: 1.237
  Water: 4.81 % W/W
5° C. 2M
  Description: White
  Impurity RRT 1.094: 0.161
  Impurity RRT 1.180: 0.048
  Impurity RRT 1.437: 0.164
  Impurity RRT 1.593: 0.085
  Impurity RRT 1.694: 0.067
5° C. 2M, hemi calcium salt
  Assay: 98.25 % W/W
  Highest Impurity: 0.380
  Impurity RRT 0.935: 0.380
  Impurity RRT 1.045: 0.375
  Impurity RRT 1.64: 0.051
  Total Impurity: 1.33
  Water: 4.61 % W/W
5° C. 3M
  Description: White
  Impurity RRT 1.094: 0.149
  Impurity RRT 1.437: 0.169
  Impurity RRT 1.593: 0.077
  Impurity RRT 1.694: 0.056
  Total Impurity: 1.35
5° C. 3M, hemi calcium salt
  Assay: 98.20 % W/W
  Highest Impurity: 0.469
  Impurity RRT 0.935: 0.385
  Impurity RRT 1.045: 0.469
  Impurity RRT 1.64: 0.047
  Water: 4.97 % W/W
5° C. 4M
  Description: White
  Impurity RRT 1.094: 0.169
  Impurity RRT 1.437: 0.132
  Impurity RRT 1.593: 0.071
  Impurity RRT 1.694: 0.071
5° C. 4M, hemi calcium salt
  Assay: 98.24 % W/W
  Highest Impurity: 0.419
  Impurity RRT 0.935: 0.419
  Impurity RRT 1.045: 0.409
  Impurity RRT 1.640: 0.067
  Total Impurity: 1.338
  Water: 4.43 % W/W
5° C. 5M
  Description: White
  Impurity RRT 1.094: 0.105
  Impurity RRT 1.437: 0.155
  Impurity RRT 1.550: 0.587
  Impurity RRT 1.694: 0.045
5° C. 5M, hemi calcium salt
  Assay: 98.29 % W/W
  Highest Impurity: 0.587
  Impurity RRT 0.935: 0.289
  Impurity RRT 1.045: 0.312
  Impurity RRT 1.640: 0.024
  Total Impurity: 1.517
  Water: 5.55 % W/W
5° C. 6M
  Description: White
  Impurity RRT 1.094: 0.153
  Impurity RRT 1.437: 0.170
  Impurity RRT 1.593: 0.081
  Impurity RRT 1.694: 0.070
  Water: 5.04 % W/W
5° C. 6M, hemi calcium salt
  Assay: 98.02 % W/W
  Highest Impurity: 0.423
  Impurity RRT 0.935: 0.423
  Impurity RRT 1.045: 0.390
  Impurity RRT 1.640: 0.053
  Total Impurity: 1.340
5° C. 9M
  Description: White
  Impurity RRT 1.094: 0.161
  Impurity RRT 1.180: 0.055
  Impurity RRT 1.437: 0.170
  Impurity RRT 1.593: 0.065
  Impurity RRT 1.694: 0.064
5° C. 9M, hemi calcium salt
  Assay: 98.12 % W/W
  Highest Impurity: 0.407
  Impurity RRT 0.935: 0.407
  Impurity RRT 1.045: 0.407
  Impurity RRT 1.640: 0.033
  Total Impurity: 1.362
  Water: 5.07 % W/W
5° C. 12M
  Description: White
  Impurity RRT 1.094: 0.158
  Impurity RRT 1.180: 0.022
  Impurity RRT 1.437: 0.152
  Impurity RRT 1.593: 0.086
  Impurity RRT 1.694: 0.068
5° C. 12M, hemi calcium salt
  Assay: 97.78 % W/W
  Highest Impurity: 0.432
  Impurity RRT 0.935: 0.417
  Impurity RRT 1.045: 0.432
  Impurity RRT 1.640: 0.051
  Total Impurity: 1.413
  Water: 5.08 % W/W
25° C./50% RH 6M
  Assay: 98.01 % W/W
  Description: White
  Highest Impurity: 0.390
  Impurity RRT 0.935: 0.390
  Impurity RRT 1.045: 0.370
  Impurity RRT 1.094: 0.140
  Impurity RRT 1.437: 0.117
  Impurity RRT 1.593: 0.073
  Impurity RRT 1.640: 0.048
  Impurity RRT 1.694: 0.074
  Total Impurity: 1.212
  Water: 5.41 % W/W
25° C./60% RH 3M
  Description: White
  Impurity RRT 1.094: 0.153
  Impurity RRT 1.437: 0.155
  Impurity RRT 1.593: 0.079
  Impurity RRT 1.694: 0.064
[1]
  Assay: 98.21 % W/W
  Highest Impurity: 0.388
  Impurity RRT 0.935: 0.368
  Impurity RRT 1.045: 0.382
  Impurity RRT 1.64: 0.047
  Total Impurity: 1.270
  Water: 4.03 % W/W
25° C./60% RH 9M
  Description: White
  Impurity RRT 1.094: 0.141
  Impurity RRT 1.437: 0.162
  Impurity RRT 1.593: 0.076
  Impurity RRT 1.694: 0.068
[2]
  Assay: 98.09 % W/W
  Highest Impurity: 0.376
  Impurity RRT 0.935: 0.374
  Impurity RRT 1.045: 0.376
  Impurity RRT 1.640: 0.046
  Total Impurity: 1.243
  Water: 5.04 % W/W
25° C./60% RH 12M
  Description: White
  Impurity RRT 1.094: 0.153
  Impurity RRT 1.180: 0.019
  Impurity RRT 1.437: 0.145
  Impurity RRT 1.593: 0.083
  Impurity RRT 1.694: 0.059
25° C./60% RH 12M, hemi calcium salt
  Assay: 97.95 % W/W
